Measurements reported in publication PMC4042406 (British journal of haematology, 2011).
“And” between values parts separate entries of the source, which are not always exact repeats. Identical values can stand only once.

Legend:
MM.1S cells [1] = test: InnoCyte Cytochrome C release assay; type: cell-based, human
MM.1S cells [2] = test: Annexin V / PI flow cytometric analysis of apoptosis; type: cell-based, human; conditions: 2 μM, 4-48 hrs
S6B45 MM cell line = test: MTT colorimetric survival assay; type: cell-based, human; conditions: read-out: EC50 (viability), S6B45, 0-4 μM, 48 hrs
Dox40 MM cell line = test: MTT colorimetric survival assay; type: cell-based, human; conditions: read-out: EC50 (viability), Dox40, 0-4 μM, 48 hrs
OPM2 MM cell line = test: MTT colorimetric survival assay; type: cell-based, human; conditions: read-out: EC50 (viability), OPM2, 0-4 μM, 48 hrs
PBMCs = test: MTT viability of PBMCs from healthy donors; type: cell-based, human; conditions: LCQ195 up to 8 μM for 48 hrs
U266 MM cell line = test: MTT colorimetric survival assay; type: cell-based, human; conditions: read-out: EC50 (viability), U266, 0-4 μM, 48 hrs
CDK1/cyclin B = CDK1/cyclin B (Homo sapiens, UniProt P06493); test: Invitrogen Z'-LYTE in vitro kinase activity assay; type: biochemical; conditions: 500 nM LCQ195, 100 μM ATP, 1% DMSO
CLK3 = CLK3 (Homo sapiens, UniProt P49761); test: Invitrogen Z'-LYTE in vitro kinase activity assay; type: biochemical; conditions: 500 nM LCQ195, 100 μM ATP, 1% DMSO
CDK2/cyclin A [3] = molecular target: T1, CDK2/cyclin A (Homo sapiens, UniProt P24941); test: Invitrogen Z'-LYTE in vitro kinase activity assay; type: biochemical; conditions: 500 nM LCQ195, 100 μM ATP, 1% DMSO
CDK2/cyclin A [4] = molecular target: T1, CDK2/cyclin A; test: Millipore KinaseProfilerXL kinase activity, dose titration; type: biochemical; conditions: 5-log dose titration 0.001-10μM
MM.1S cells [5] = test: Drug combination viability; type: cell-based, human; conditions: data not shown
[6] = system: CD138+ selected primary MM cells; test: CellTiterGlo viability of purified primary tumor cells from MM patients; type: cell-based, human; conditions: increasing doses, 48 hrs
panel of MM cell lines = test: MTT colorimetric survival assay, panel of MM cell lines; type: cell-based, human; conditions: read-out: EC50 (viability), majority of MM cell lines, 0-4 μM, 48 hrs
XG-1 MM cell line = test: MTT colorimetric survival assay; type: cell-based, human; conditions: read-out: EC50 (viability), XG-1, 0-4 μM, 48 hrs
HS-5 BMSCs = test: MTT viability of non-malignant stromal cells; type: cell-based, human; conditions: read-out: calculated EC50 (viability); non-malignant HS-5 BMSCs
MM.1S cells [7] = test: Gene expression profiling; type: cell-based, human; conditions: 2 μM, 2-24hrs
NOP2 MM cell line = test: MTT colorimetric survival assay; type: cell-based, human; conditions: read-out: EC50 (viability), NOP2, 0-4 μM, 48 hrs
CDK5/p25 = CDK5/p25 (Homo sapiens, UniProt Q00535); test: Invitrogen Z'-LYTE in vitro kinase activity assay; type: biochemical; conditions: 500 nM LCQ195, 100 μM ATP, 1% DMSO
MM.1S cells [8] = test: Immunoblotting, comparison of LCQ195, flavopiridol and Taxol; conditions: equipotent doses: LCQ195 1 μM, flavopiridol 50 nM; 4-24 hrs
CHEK2 (CHK2) = CHEK2 (CHK2) (Homo sapiens, UniProt O96017); test: Invitrogen Z'-LYTE in vitro kinase activity assay; type: biochemical; conditions: 500 nM LCQ195, 100 μM ATP, 1% DMSO
MM.1S cells [9] = test: Immunoblotting analysis of LCQ195-treated cells; type: cell-based, human; conditions: 2 μM
KMS-12-BM MM cell line = test: MTT colorimetric survival assay; type: cell-based, human; conditions: read-out: EC50 (viability), 0-4 μM, 48 hrs
CDK2/cyclin E = CDK2/cyclin E (Homo sapiens, UniProt P24941); test: Millipore KinaseProfilerXL kinase activity, dose titration; type: biochemical; conditions: 5-log dose titration 0.001-10μM
[10] = system: immortalized hepatocyte cell line THLE-3; test: MTT viability of immortalized hepatocytes; type: cell-based; conditions: read-out: calculated EC50 (viability); immortalized hepatocytes THLE-3
CDK5/p35 = CDK5/p35 (Homo sapiens, UniProt Q00535); test: Invitrogen Z'-LYTE in vitro kinase activity assay; type: biochemical; conditions: 500 nM LCQ195, 100 μM ATP, 1% DMSO
Delta 47 MM cell line = test: MTT colorimetric survival assay; type: cell-based, human; conditions: read-out: EC50 (viability), Delta 47, 0-4 μM, 48 hrs
MM.1S cells [11] = test: Flow cytometric cell cycle analysis; type: cell-based, human; conditions: 2 μM for up to 48 hours
[12] = system: Bcl-2 over-expressing MM.1S; test: Survival of Bcl-2 over-expressing MM.1S vs parental cells; type: cell-based, human; conditions: LCQ195 treatment for 48 hrs

Chain of CDK5/p35 (Q00535 whole entry): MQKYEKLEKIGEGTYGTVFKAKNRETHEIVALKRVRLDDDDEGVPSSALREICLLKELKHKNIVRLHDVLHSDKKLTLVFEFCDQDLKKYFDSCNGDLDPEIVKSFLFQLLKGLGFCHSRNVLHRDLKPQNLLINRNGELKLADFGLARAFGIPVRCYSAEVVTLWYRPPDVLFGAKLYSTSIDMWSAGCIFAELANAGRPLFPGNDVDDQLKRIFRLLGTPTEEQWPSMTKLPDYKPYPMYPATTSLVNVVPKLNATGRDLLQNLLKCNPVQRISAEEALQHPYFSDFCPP
Chain of CDK5/p25 (Q00535 whole entry): as above
Chain of CLK3 (P49761 whole entry): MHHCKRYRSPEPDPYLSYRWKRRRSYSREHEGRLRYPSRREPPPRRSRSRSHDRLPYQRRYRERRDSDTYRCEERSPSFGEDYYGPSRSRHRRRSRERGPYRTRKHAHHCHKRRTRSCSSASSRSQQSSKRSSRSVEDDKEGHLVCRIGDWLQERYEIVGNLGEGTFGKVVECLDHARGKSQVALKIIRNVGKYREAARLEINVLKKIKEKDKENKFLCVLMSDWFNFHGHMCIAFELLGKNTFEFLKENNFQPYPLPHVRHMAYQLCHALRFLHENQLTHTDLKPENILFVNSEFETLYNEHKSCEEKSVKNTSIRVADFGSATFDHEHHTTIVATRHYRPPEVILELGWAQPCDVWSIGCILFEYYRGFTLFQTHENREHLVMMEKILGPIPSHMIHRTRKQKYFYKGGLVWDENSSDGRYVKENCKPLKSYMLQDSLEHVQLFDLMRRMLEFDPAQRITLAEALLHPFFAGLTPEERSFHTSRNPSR
Chain of CHEK2 (CHK2) (O96017 whole entry): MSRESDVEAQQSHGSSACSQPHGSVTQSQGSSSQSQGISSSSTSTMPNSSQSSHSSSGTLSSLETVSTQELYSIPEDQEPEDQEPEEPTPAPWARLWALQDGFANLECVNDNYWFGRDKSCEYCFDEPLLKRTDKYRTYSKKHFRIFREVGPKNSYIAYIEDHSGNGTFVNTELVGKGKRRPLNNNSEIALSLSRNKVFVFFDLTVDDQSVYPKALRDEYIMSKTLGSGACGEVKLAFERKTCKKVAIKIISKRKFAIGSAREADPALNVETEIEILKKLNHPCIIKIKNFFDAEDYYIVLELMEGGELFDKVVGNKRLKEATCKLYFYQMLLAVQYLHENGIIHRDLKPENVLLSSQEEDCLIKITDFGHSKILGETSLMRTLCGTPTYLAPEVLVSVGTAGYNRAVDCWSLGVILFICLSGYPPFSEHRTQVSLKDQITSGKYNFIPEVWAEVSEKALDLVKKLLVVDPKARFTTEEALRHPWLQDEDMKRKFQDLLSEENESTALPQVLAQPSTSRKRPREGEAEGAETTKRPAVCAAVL
Chain of CDK1/cyclin B (P06493 whole entry): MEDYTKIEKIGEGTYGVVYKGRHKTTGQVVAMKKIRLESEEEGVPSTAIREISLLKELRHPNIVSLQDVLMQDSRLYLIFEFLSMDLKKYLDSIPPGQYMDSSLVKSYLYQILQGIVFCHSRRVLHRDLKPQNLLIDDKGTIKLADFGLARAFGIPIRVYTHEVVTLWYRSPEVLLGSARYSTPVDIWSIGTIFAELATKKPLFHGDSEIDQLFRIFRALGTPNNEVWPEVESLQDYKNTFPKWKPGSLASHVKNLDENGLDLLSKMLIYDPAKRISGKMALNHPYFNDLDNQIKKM

CS(=O)(=O)N1CCC(NC(=O)c2[nH]ncc2NC(=O)c2c(Cl)cccc2Cl)CC1 [LCQ195]
cytochrome c release (MM.1S cells [1]; 2 μM LCQ195 for 4-24hrs): no changes | apoptosis (Annexin V / PI staining) (MM.1S cells [2]): induces apoptosis | EC50 (S6B45 MM cell line): < 1000 nM | EC50 (Dox40 MM cell line): > 4000 nM | EC50 (OPM2 MM cell line): < 1000 nM | percentage of viable PBMCs (PBMCs): ≥ 50% | EC50 (U266 MM cell line): < 1000 nM | inhibition of kinase activity (CDK1/cyclin B): potent inhibition | inhibition of kinase activity (CLK3): partial inhibition | inhibition of kinase activity (CDK2/cyclin A [3]): potent inhibition | in vitro kinase activity in dose titration (CDK2/cyclin A [4]): active at sub-μM concentrations | combination with bortezomib (MM.1S cells [5]): no synergy | combination with doxorubicin (MM.1S cells [5]): no synergy | response of purified primary tumor cells (viability) [6]: responded | EC50 (panel of MM cell lines): ~1000 nM and ≤ 1000 nM | EC50 (XG-1 MM cell line): > 4000 nM | EC50 (HS-5 BMSCs): > 4000 nM | expression of transcription factors myc, IRF4 and XBP-1 (transcripts) (MM.1S cells [7]): suppressed | EC50 (NOP2 MM cell line): > 4000 nM | inhibition of kinase activity (CDK5/p25): potent inhibition | p107 levels (immunoblotting) (MM.1S cells [8]): decreased | inhibition of kinase activity (CHEK2 (CHK2)): partial inhibition | caspase 8, caspase 3 and PARP cleavage (immunoblotting) (MM.1S cells [9]; 0-24 hrs): cleavage as early as 16 hrs | caspase 9 cleavage (immunoblotting) (MM.1S cells [9]; 0-24 hrs): no cleavage of caspase 9 | Rb phosphorylation (immunoblotting) (MM.1S cells [9]; as early as 2 hours): pronounced decrease | EC50 (KMS-12-BM MM cell line): < 1000 nM | in vitro kinase activity in dose titration (CDK2/cyclin E): active at sub-μM concentrations | EC50 [10]: > 4000 nM | inhibition of kinase activity (CDK5/p35): potent inhibition | EC50 (Delta 47 MM cell line): < 1000 nM | cell cycle profile (MM.1S cells [11]): increased the percentage of cells in S and G2/M phases early, followed by an increase in sub-G1 population | effect of bcl-2 overexpression on cell survival after treatment [12]: minimal effect on cell survival

CC(C)C[C@H](NC(=O)[C@H](Cc1ccccc1)NC(=O)c1cnccn1)B(O)O [PS-341, reference compound]
cytochrome c release (MM.1S cells [1]; positive control, 50 nM for 12 hrs): significant release of cytochrome C

CN1CC[C@H](c2c(O)cc(O)c3c(=O)cc(-c4ccccc4Cl)oc23)[C@H](O)C1 [flavopiridol, reference compound]
p107 levels (immunoblotting) (MM.1S cells [8]): stable
